Test results reported in US20110130286A1, “Piperazine Compounds with Herbicidal Effect” (BASF SE, priority 2008, published 2011).

Experiments:
LOLMU = assay: greenhouse test, post-emergence treatment; assay type: in vivo, Lolium multiflorum; conditions: application rate 1.0 kg/ha, scale from 0 to 100
Text: (§1) The culture containers used were plastic flowerpots containing loamy sand with approximately 3.0% of humus as the substrate. The seeds of the test plants were sown separately for each species.
(§2) For the post-emergence treatment, the test plants were first grown to a height of 3 to 15 cm, depending on the plant habit, and then treated with the active compounds which had been suspended or emulsified in water. For this purpose, the test plants were either sown directly and grown in the same containers, or they were first grown separately as seedlings and transplanted into the test containers a few days prior to treatment.
(§3) Depending on the species, the plants were kept at 10-25° C. or 20-35° C. The test period extended over 2 to 4 weeks. During this time, the plants were tended, and their response to the individual treatments was evaluated.
(§4) Evaluation was carried out using a scale from 0 to 100. 100 means no emergence of the plants, or complete destruction of at least the aerial moieties, and 0 means no damage, or normal course of growth. A good herbicidal activity is given at values of at least 70 and a very good herbicidal activity is given at values of at least 85.

AVEFA = assay: greenhouse test, post-emergence treatment; assay type: in vivo, Avena fatua; conditions: application rate 1.0 kg/ha, scale from 0 to 100
Text: as §1, §2, §3, §4

ECHCG [1] = assay: greenhouse test, post-emergence treatment; assay type: in vivo, Echinochloa crus-galli; conditions: application rate 1.0 kg/ha, scale from 0 to 100
Text: as §1, §2, §3, §4

ECHCG [2] = assay: greenhouse test, pre-emergence treatment; assay type: in vivo, Echinochloa crus-galli
Text: as §1
(§5) For the pre-emergence treatment, the active compounds, which had been suspended or emulsified in water, were applied directly after sowing by means of finely distributing nozzles. The containers were irrigated gently to promote germination and growth and subsequently covered with transparent plastic hoods until the plants had rooted. This cover caused uniform germination of the test plants, unless this has been impaired by the active compounds.
as §3, §4
(§6) The respective stated components A and B were formulated as a 5% by weight strength or 10% by weight strength emulsion concentrate, or a commercial formulation of component B was used, and, with addition of the amount of solvent system, introduced into the spray liquor used for applying the active compound. In the examples, the solvent used was water.
(§7) The test period extended over 20 or 21 days. During this time, the plants were tended, and their reactions to the treatments with active compound were monitored.
(§8) In the examples below, using the method of S. R. Colby (1967) “Calculating synergistic and antagonistic responses of herbicide combinations”, Weeds 15, p. 22ff., the value E, which is expected if the activity of the individual active compounds is only additive, was calculated.
(§9) What was evaluated was the damage by the chemical compositions using a scale of from 0 to 100%, in comparison to the untreated control plants. 0 means no damage, and 100 means complete destruction of the plants.

APESV [3] = assay: greenhouse test, pre-emergence treatment; assay type: in vivo, Apera spica-venti; conditions: for herbicidal activity against APESV: application rate 0.125 kg/ha, comparative test
Text: as §1, §5, §3, §4, §6, §7, §8, §9

ALOMY [4] = assay: greenhouse test, pre-emergence treatment; assay type: in vivo, Alopecurus agrestis; conditions: for herbicidal activity against ALOMY: application rate 0.125 kg/ha, comparative test
Text: as §1, §5, §3, §4, §6, §7, §8, §9

SETVI = assay: greenhouse test, pre-emergence treatment; assay type: in vivo, Setaria viridis
Text: as §1, §5
(§10) Depending on the species, the plants were kept at 10-25° C. or 20-35° C. […] During this time, the plants were tended, and their response to the individual treatments was evaluated. […]
as §7, §8
(§11) What was evaluated was the damage by the chemical compositions using a scale of from 0 to 100%, in comparison to the untreated control plants. […]

BRAPL = assay: greenhouse test, pre-emergence treatment; assay type: in vivo, Brachiaria plantaginea
Text: as §1, §5, §10, §7, §8, §11

CHEAL = assay: greenhouse test, post-emergence treatment; assay type: in vivo, Chenopodium album
Text: as §1, §2, §10, §7, §8, §11

LAMPU = assay: greenhouse test, pre-emergence treatment; assay type: in vivo, Lamium purpureum
Text: as §1, §5, §10, §7, §8, §11

ABUTH = assay: greenhouse test, pre-emergence treatment; assay type: in vivo, Abutilon theophrasti
Text: as §1, §5, §10, §7, §8, §11

VIOAR = assay: greenhouse test, pre-emergence treatment; assay type: in vivo, Viola arvensis
Text: as §1, §5, §10, §7, §8, §11

APESV [5] = assay: greenhouse test, post-emergence treatment; assay type: in vivo, Apera spica-venti
Text: as §1, §2, §10, §7, §8, §11

BROIN [6] = assay: greenhouse test, pre-emergence treatment; assay type: in vivo, Bromus inermis
Text: as §1, §5, §3, §6, §7, §8, §9

BROIN [7] = assay: greenhouse test, post-emergence treatment; assay type: in vivo, Bromus inermis
Text: as §1, §2, §10, §7, §8, §11

ALOMY [8] = assay: greenhouse test, post-emergence treatment; assay type: in vivo, Alopecurus agrestis
Text: as §1, §2, §10, §7, §8, §11

POLCO [9] = assay: greenhouse test, post-emergence treatment; assay type: in vivo, Fallopia convolvulus
Text: as §1, §2, §10, §7, §8, §11

POLCO [10] = assay: greenhouse test, pre-emergence treatment; assay type: in vivo, Fallopia convolvulus
Text: as §1, §5, §10, §7, §8, §11

[11] = application rate 0.125 kg/ha, comparative test

CN1C(=O)C(C)(Cc2ccccc2)N(C)C(=O)C1=Cc1cccnc1Br (racemic) [I-1]
herbicidal activity against LOLMU (LOLMU): very good (a very good herbicidal activity is given at values of at least 85) | herbicidal activity against AVEFA (AVEFA): very good (a very good herbicidal activity is given at values of at least 85) | herbicidal activity against ECHCG (ECHCG [1]): very good (a very good herbicidal activity is given at values of at least 85)

CC(C)CN1C(=O)C(=Cc2cccnc2Br)N(C)C(=O)C1(C)Cc1ccccc1 (racemic) [I-463]
herbicidal activity against ECHCG (ECHCG [2]; application rate 0.5 kg/ha, scale from 0 to 100): good (A good herbicidal activity is given at values of at least 70)

CN1C(=O)C(Cc2ccccc2)N(C)C(=O)/C1=C/c1cccnc1C#N (stereo not drawn) [Ex. 14, reference compound]
herbicidal activity against APESV (APESV [3]): 90% | herbicidal activity against ECHCG (ECHCG [2]; [11]): no herbicidal activity | herbicidal activity against ALOMY (ALOMY [4]): no herbicidal activity

CN1C(=O)C(C)(Cc2ccccc2)N(C)C(=O)C1=Cc1cccnc1Cl (stereo not drawn) [Example 3, 3-benzyl-6-[1-(2-chloropyridin-3-yl)methylidene]-1,3,4-tri-methylpiperazine-2,5-dione]
melting point: 146 °C

CN1C(=O)C(C)(Cc2ccccc2)N(C)C(=O)C1=Cc1cccnc1C#N (stereo not drawn) [Example 4, 3-(5-benzyl-1,4,5-trimethyl-3,6-dioxopiperazin-2-ylidene-methyl)pyridine-2-carbonitrile]
melting point: 163 °C

CN1C(=O)C(C)(Cc2ccccc2)N(C)C(=O)/C1=C/c1cccnc1C#N (stereo not drawn) [I-2]
Herbicidal activity in % after 20 days against SETVI (SETVI; 62.5 g/ha a.s.): 90% | Herbicidal activity in % after 20 days against APESV (APESV [3]; 125 g/ha a.s.): 95% | herbicidal activity against APESV (APESV [3]): 100% | Herbicidal activity in % after 20 days against BRAPL (BRAPL; 62.5 g/ha a.s.): 65% | Herbicidal activity in % after 20 days against CHEAL (CHEAL; 125 g/ha a.s.): 70% | Herbicidal activity in % after 20 days against LAMPU (LAMPU; 62.5 g/ha a.s.): 40% | Herbicidal activity in % after 20 days against ABUTH (ABUTH; 62.5 g/ha a.s.): 0% | Herbicidal activity in % after 20 days against VIOAR (VIOAR; 62.5 g/ha a.s.): 60% | Herbicidal activity in % after 20 days against ECHCG (ECHCG [2]; 62.5 g/ha a.s.): 40% | herbicidal activity against ECHCG (ECHCG [2]; [11]): 80% | Herbicidal activity in % after 20 days against APESV (APESV [5]; 62.5 g/ha a.s.): 40% | melting point: 163 °C | Herbicidal activity in % after 20 days against BROIN (BROIN [6]; 62.5 g/ha a.s.): 20% | Herbicidal activity in % after 20 days against BROIN (BROIN [6]; 125 g/ha a.s.): 80% | Herbicidal activity in % after 20 days against ALOMY (ALOMY [4]; 62.5 g/ha a.s.): 65% | herbicidal activity against ALOMY (ALOMY [4]): 75% | Herbicidal activity in % after 20 days against BROIN (BROIN [7]; 125 g/ha a.s.): 45% | Herbicidal activity in % after 20 days against ALOMY (ALOMY [8]; 62.5 g/ha a.s.): 45% | Herbicidal activity in % after 20 days against POLCO (POLCO [9]; 62.5 g/ha a.s.): 40% | Herbicidal activity in % after 20 days against POLCO (POLCO [10]; 125 g/ha a.s.): 80%

CCC(CC)Nc1c([N+](=O)[O-])cc(C)c(C)c1[N+](=O)[O-] [pendimethalin, reference compound]
Herbicidal activity in % after 20 days against APESV (APESV [3]; 250 g/ha a.s.): 95% | Herbicidal activity in % after 20 days against CHEAL (CHEAL; 250 g/ha a.s.): 75% | Herbicidal activity in % after 20 days against BROIN (BROIN [6]; 250 g/ha a.s.): 40% | Herbicidal activity in % after 20 days against BROIN (BROIN [7]; 250 g/ha a.s.): 0% | Herbicidal activity in % after 20 days against POLCO (POLCO [10]; 250 g/ha a.s.): 70%

Cn1nc(C(F)(F)F)c(CS(=O)(=O)C2=NOC(C)(C)C2)c1OC(F)F [pyroxasulfone, reference compound]
Herbicidal activity in % after 20 days against SETVI (SETVI; 12.5 g/ha a.s.): 90% | Herbicidal activity in % after 20 days against LAMPU (LAMPU; 12.5 g/ha a.s.): 80% | Herbicidal activity in % after 20 days against APESV (APESV [5]; 12.5 g/ha a.s.): 80% | Herbicidal activity in % after 20 days against BROIN (BROIN [6]; 12.5 g/ha a.s.): 65% | Herbicidal activity in % after 20 days against ALOMY (ALOMY [4]; 12.5 g/ha a.s.): 90% | Herbicidal activity in % after 20 days against ALOMY (ALOMY [8]; 12.5 g/ha a.s.): 85% | Herbicidal activity in % after 20 days against POLCO (POLCO [9]; 12.5 g/ha a.s.): 40%

CC(C)N(C)S(=O)(=O)NC(=O)c1cc(-n2c(=O)cc(C(F)(F)F)n(C)c2=O)c(F)cc1Cl [saflufenacil, reference compound]
Herbicidal activity in % after 20 days against BRAPL (BRAPL; 6.25 g/ha a.s.): 35% | Herbicidal activity in % after 20 days against ABUTH (ABUTH; 6.25 g/ha a.s.): 90% | Herbicidal activity in % after 20 days against VIOAR (VIOAR; 6.25 g/ha a.s.): 80% | Herbicidal activity in % after 20 days against ECHCG (ECHCG [2]; 6.25 g/ha a.s.): 0%
